Laboratory results: patent US12264173B2 (GILEAD SCIENCES, INC., priority 2020, dated 2025)
Where two headings read alike, the source gives them in different places.

Columns and labels:
Type in all cases: cell-based
RSV A2 = assay: RSV NHBE EC50 (RSV A2 antiviral assay in NHBE cells); settings: read-out: RSV NHBE EC50
Summary of the method: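 Antiviral activity against RSV A2 was determined in NHBE cells used within 6 passages, with cell viability quantified by CellTiter-Glo after a 4-day infection.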

DENV2 replicon = assay: DENV-2 Huh-7 Rep EC50 (replicon luminescence)
Experimental: In 384 well plates (Greiner, Cat #781091), compounds were acoustically transferred at 200 nl per well in a 8 compound (4 replicates) or 40 compound dose response format (3 replicates). For all plates tested, Balapiravir, GS-5734 and NITD008 were included as positive inhibition controls alongside 0% inhibition, DMSO-only negative control wells. Following compound addition, Huh-7 cells containing the DENV2 replicon construct were harvested following standard cell culture procedures and were adjusted to a concentration of 1.25E5 cells/mL in cell culture media composed of cDMEM without genticin. 40 μL of the cell stock was then added to each well for a final cell density of 5,000 cells/well. Cell and compound mixtures were incubated at 37° C./5% CO2 for 48 hours. Prior to harvesting cells, EnduRen Live Cell Substrate (Promega, Cat #E6481) was prepared by suspending 3.4 mg into 100 uL of DMSO to generate a 60 mM stock solution. The stock solution was then diluted 1:200 in pre-warmed cDMEM and 10 uL of this diluted solution was added to each well of the 384 well plates. Plates were then centrifuged at 500 rpm briefly and were placed on a plate shaker for 2 min. Following mixing, plates were incubated at […] for 1.5 hours prior to measuring luminescence on an Envision luminometer.

RSV strain A2 = assay: microbe, parasite or virus in culture; settings: read-out: RSV HEp-2 EC50
Summary of the method: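 Cytopathic-effect protection assay: HEp-2 cells (50,000/mL) infected with pre-titered RSV A2 onto 3-fold serial compound dilutions, incubated 4 days at 37° C. Cell viability read by CellTiter-Glo luminescence; percent inhibition derived against 0% and 100% virus-inhibition controls.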

[1] = human respiratory syncytial virus, NHBE, 96 h, Table 3, NHBE cells, RSV A2, 4 days
[2] = human respiratory syncytial virus, NHBE, Table 5 comparative activity, 2',3'-OH vs -OC(O)iPr
[3] = Dengue virus, DENV2, Huh-7, 48 h, read-out: DENV-2 REP Huh7 EC50
[4] = Dengue virus, DENV2, Huh-7, read-out: DENV Rep EC50
[5] = human respiratory syncytial virus, HEp-2, 96 h, Table 3, HEp-2 cells, RSV A2, 4 days
[6] = human respiratory syncytial virus, HEp-2, Table 5 comparative activity, 2',3'-OH vs -OC(O)iPr
[7] = Table 3, NHBE cells, RSV A2, 4 days
[8] = Table 3, Huh-7 DENV2 replicon cells, 48 hours, read-out: DENV-2 REP Huh7 EC50
[9] = Table 3, HEp-2 cells, RSV A2, 4 days

Row | SMILES | EC50 (RSV A2; [1]) [nM] | EC50 (RSV A2; [2]) [nM] | EC50 (DENV2 replicon; [3]) [nM] | EC50 (DENV2 replicon; [4]) [nM] | EC50 (RSV strain A2; [5]) [nM] | EC50 (RSV strain A2; [6]) [nM] | EC50 (RSV A2; [7]) [nM] | EC50 (DENV2 replicon; [8]) [nM] | EC50 (RSV strain A2; [9]) [nM]
1 | CC(C)C(=O)O[C@H]1[C@H](c2ccc3c(N)ncnn23)O[C@](C#N)(COP(=O)(N[C@@H](C)C(=O)OCC2CCOCC2)Oc2ccccc2)[C@H]1OC(=O)C(C)C (mixture of isomers) [Example 181, (2R,3S,4S,5S)-5-(4-aminopyrrolo[2,1-f][1,2,4]triazin-7-yl)-2-cyano-2-((((((S)-1-oxo-1-((tetrahydro-2H-pyran-4-yl)methoxy)propan-2-yl)amino)(phenoxy)phosphoryl)oxy)methyl)tetrahydrofuran-3,4-diyl bis(2-methylpropanoate)] | 30 | 30 | 6630 | 6630 | 84 | 84 |  |  | 
2 | CC(=O)O[C@H]1[C@H](c2ccc3c(N)ncnn23)O[C@](C#N)(COP(=O)(N[C@@H](C)C(=O)OC2CCOCC2)Oc2ccccc2)[C@H]1OC(C)=O (single isomer, unassigned) [Example 164] |  |  |  |  |  |  | 148 | > 100000 | 1690
3 | C[C@H](NP(=O)(OC[C@@]1(C#N)O[C@@H](c2ccc3c(N)ncnn23)[C@H](OC(=O)C(C)(C)C)[C@@H]1OC(=O)C(C)(C)C)Oc1ccccc1)C(=O)OC1CCOCC1 (single isomer, unassigned) [Example 172] |  |  |  |  |  |  | 145 | 16800 | 1100
4 | CC(C)C(=O)O[C@H]1[C@H](c2ccc3c(N)ncnn23)O[C@](C#N)(COP(=O)(N[C@@H](C)C(=O)OCC(C)(C)O)Oc2ccccc2)[C@H]1OC(=O)C(C)C (single isomer, unassigned) [Example 257] |  |  |  |  |  |  | 24 | 7470 | 72
5 | CC(C)C(=O)O[C@H]1[C@H](c2ccc3c(N)ncnn23)O[C@](C#N)(COP(=O)(N[C@@H](C)C(=O)OCC(C)(C)O)Oc2ccccc2)[C@H]1OC(=O)C(C)C (single isomer, unassigned) [Example 258] |  |  |  |  |  |  | 34 | 18300 | 91
6 | CCC(=O)OC1[C@H](c2ccc3c(N)ncnn23)O[C@](C#N)(COP(=O)(N[C@@H](C)C(=O)OCC2CCC2)Oc2ccccc2)[C@H]1OC(=O)CC (stereo in doubt) [Example 91, (2R,3S,4R,5S)-5-(4-aminopyrrolo[2,1-f][1,2,4]triazin-7-yl)-2-cyano-2-((((((S)-1-(cyclobutylmethoxy)-1-oxopropan-2-yl)amino)(phenoxy)phosphoryl)oxy)methyl) tetrahydrofuran-3,4-diyl dipropionate] | 23 |  | 10200 |  | 67 |  |  |  | 
7 | CC(=O)OC1[C@H](c2ccc3c(N)ncnn23)O[C@](C#N)(COP(=O)(N[C@@H](C)C(=O)OCC2CCC2)Oc2ccccc2)[C@H]1OC(C)=O (stereo in doubt) [Example 94, (2R,3S,4R,5S)-5-(4-aminopyrrolo[2,1-f][1,2,4]triazin-7-yl)-2-cyano-2-((((((S)-1-(cyclobutylmethoxy)-1-oxopropan-2-yl)amino)(phenoxy)phosphoryl)oxy)methyl) tetrahydrofuran-3,4-diyl diacetate] | 41 |  | 13700 |  | 189 |  |  |  | 
8 | CC(=O)OC1[C@H](c2ccc3c(N)ncnn23)O[C@](C#N)(COP(=O)(N[C@@H](C)C(=O)OCC2CC2)Oc2ccccc2)[C@H]1OC(C)=O (stereo in doubt) [Example 101, (2R,3S,4R,5S)-5-(4-aminopyrrolo[2,1-f][1,2,4]triazin-7-yl)-2-cyano-2-((((((S)-1-(cyclopropylmethoxy)-1-oxopropan-2-yl)amino)(phenoxy)phosphoryl)oxy)methyl) tetrahydrofuran-3,4-diyl diacetate] | 19 |  | 25800 |  | 94 |  |  |  | 
9 | CCC(=O)OC1[C@H](c2ccc3c(N)ncnn23)O[C@](C#N)(COP(=O)(N[C@@H](C)C(=O)OCC2CCN(CC(F)(F)F)CC2)Oc2ccccc2)[C@H]1OC(=O)CC (stereo in doubt) [Example 115, (2R,3S,4R,5S)-5-(4-aminopyrrolo[2,1-f][1,2,4]triazin-7-yl)-2-cyano-2-((((((S)-1-oxo-1-((1-(2,2,2-trifluoroethyl)piperidin-4-yl)methoxy)propan-2-yl)amino)(phenoxy)phosphoryl)oxy)methyl)tetrahydrofuran-3,4-diyl dipropionate] | 22 |  | 20400 |  | 112 |  |  |  | 
10 | C[C@H](NP(=O)(OC[C@@]1(C#N)O[C@@H](c2ccc3c(N)ncnn23)[C@H](O)[C@@H]1O)Oc1ccccc1)C(=O)OCC1CCOCC1 (stereo partly drawn) [Example 20, (tetrahydro-2H-pyran-4-yl)methyl ((((2R,3S,4R,5S)-5-(4-aminopyrrolo[2,1-f][1,2,4]triazin-7-yl)-2-cyano-3,4-dihydroxytetrahydrofuran-2-yl)methoxy)(phenoxy)phosphoryl)-L-alaninate] |  | 2230 |  | > 50000 |  | 877 |  |  | 
11 | CCC(CC)COC(=O)[C@H](C)N[P@](=O)(OC[C@@]1(C#N)O[C@@H](c2ccc3c(N)ncnn23)[C@H](OC(C)=O)[C@@H]1OC(C)=O)Oc1ccccc1 [Example 88, (2R,3S,4S,5S)-5-(4-aminopyrrolo[2,1-f][1,2,4]triazin-7-yl)-2-cyano-2-((((S)-(((S)-1-(2-ethylbutoxy)-1-oxopropan-2-yl)amino)(phenoxy)phosphoryl)oxy)methyl) tetrahydrofuran-3,4-diyl diacetate] | 42 |  | 8820 |  | 108 |  |  |  | 
12 | CC(=O)O[C@H]1[C@H](c2ccc3c(N)ncnn23)O[C@](C#N)(CO[P@](=O)(N[C@@H](C)C(=O)OCC2CC2)Oc2ccccc2)[C@H]1OC(C)=O [Example 103] |  |  |  |  |  |  | 32 | 10500 | 94
13 | CC(=O)O[C@H]1[C@H](c2ccc3c(N)ncnn23)O[C@](C#N)(CO[P@@](=O)(N[C@@H](C)C(=O)OCC2CCOCC2)Oc2ccccc2)[C@H]1OC(C)=O [Example 111] |  |  |  |  |  |  | 44 | > 100000 | 873
14 | CC(C)OC(=O)[C@H](C)N[P@](=O)(OC[C@@]1(C#N)O[C@@H](c2ccc3c(N)ncnn23)[C@H](OC(=O)C2COC2)[C@@H]1OC(=O)C1COC1)Oc1ccccc1 [Example 160, (2R,3S,4S,5S)-5-(4-aminopyrrolo[2,1-f][1,2,4]triazin-7-yl)-2-cyano-2-((((S)-(((S)-1-isopropoxy-1-oxopropan-2-yl)amino)(phenoxy)phosphoryl)oxy)methyl) tetrahydrofuran-3,4-diyl bis(oxetane-3-carboxylate)] | 860 |  | 37400 |  | 204 |  |  |  | 
15 | CC(C)OC(=O)[C@H](C)NP(=O)(OC[C@@]1(C#N)O[C@@H](c2ccc3c(N)ncnn23)[C@H](OC(=O)C(C)C)[C@@H]1OC(=O)C(C)C)Oc1ccc(C(=O)N(C)C)cc1 (stereo partly drawn) [Example 177, (2R,3S,4S,5S)-5-(4-Aminopyrrolo[2,1-f][1,2,4]triazin-7-yl)-2-cyano-2-((((4-(dimethylcarbamoyl)phenoxy)(((S)-1-isopropoxy-1-oxopropan-2-yl)amino)phosphoryl)oxy)methyl)tetrahydrofuran-3,4-diyl bis(2-methylpropanoate)] | 49 |  | 27200 |  | 120 |  |  |  | 
16 | CC(C)C(=O)O[C@H]1[C@H](c2ccc3c(N)ncnn23)O[C@](C#N)(COP(=O)(N[C@@H](C)C(=O)OC[C@H]2CC[C@H](N)CC2)Oc2ccccc2)[C@H]1OC(=O)C(C)C (stereo partly drawn) [Example 207, (2R,3S,4S,5S)-2-((((((S)-1-(((1r,4S)-4-aminocyclohexyl)methoxy)-1-oxopropan-2-yl)amino)(phenoxy)phosphoryl)oxy)methyl)-5-(4-aminopyrrolo[2,1-f][1,2,4]triazin-7-yl)-2-cyanotetrahydrofuran-3,4-diyl bis(2-methylpropanoate)] | 149 |  | > 37500 |  | 1080 |  |  |  | 
